In one data set the test system is H3K9Me2. The note with it: repeated cocaine; cited from earlier work.
For data set [1] the following is noted: cited from earlier work.
In the next data set the test system is rats. Put plainly: Acute adverse effects (serotonin-associated toxicity) in the behaviour study. It counts as in vivo. How it is done:
In this instance the animals were 9 weeks old at the initiation of drug exposures and we selected just the high (20 mg/kg) dose of 5-MeO-DMT from the molecular study. […] Due to the number of behavioral paradigms to be completed by each animal we divided the study into two cohorts staggered by two weeks with 8 animals coming from each cohort to make up the 16 animals for each treatment group. 23 hours after 5-MeO-DMT administration the animals were introduced to the open field arena where they were allowed to freely explore the area for 5 mins. Following the open field test (OFT) animals were returned to their home cage for 2 hours before beginning either the elevated plus maze (EPM) or pre-pulse inhibition (PPI) testing. 24 hours after completing the OFT animals were returned to the chamber for the first session in novel object (NO1) testing. The animals were returned to their home cage for 2 hours before beginning the EPM or PPI test. 24 hours after NO1 the animals returned to the open field chamber for the second session in novel object (N02) testing. After completing N02 animals were returned to their home cage for 2 hours before they underwent the forced swim test (FST) pre-test. 24 hours later the animals were returned to the FS cylinders for the FST. Upon completion of the FST all animals were euthanized. A timeline of this experimental cohort is described in FIG. 8A.
Within 5-10 mins of administration a series of symptoms emerged that we believed were indicative of acute serotonin-associated toxicity, usually termed “serotonin syndrome” as a result of excessive serotonergic activity (Haberzettl et al. 2013). These symptoms overlap with those induced by acute psychedelic administration including head twitches, tremor, hind limb abduction, Straub tail, head shaking, head weaving and flat/low body posture however in this instance symptoms progressed rapidly to include hyperthermia, tachycardia, trembling and seizures. […] In total 7 of the 16 animals that were administered 20 mg/kg 5-MeO-DMT died or were euthanized for ethical reasons. […] As the study was divided into two cohorts we consulted with the designated vet in BMF as to what amendments should be made to our study protocol to reduce the risk of harm to animals in cohort 2 and a number of changes were implemented to the study design as outlined below.
The experiment was conducted as described for cohort 1 for the first 13 days of injections. There are a number of notable differences in experimental procedures between the two cohorts of animals to be highlighted. […] Finally, the dose of 5-MeO-DMT was reduced to 10 mg/kg. The order and timing of all the behavioral paradigms were kept constant between the cohorts. A timeline of this experimental cohort is described in FIG. 8B. Additionally, 5-MeO-DMT administrations were staggered so animals could be observed for the duration of acute drug effects and to ensure recovery prior to the next animal being injected. The typical symptoms of psychedelic drug administration outlined above were reproduced in all animals administered 5-MeO-DMT.

Another data set relates to BDNF. Put plainly: Western blot of BDNF in brain regions, chronic cocaine ± 5-MeO-DMT. It counts as in vivo, Male Wistar rats. The note with it: for BDNF expression: 24 h; for BDNF levels: 120 h. From the text:
Male Wistar rats aged 7 weeks were acclimatized to the facility for 1 week prior to the beginning of the study. […] Animals were euthanized 23- or 119-hours following vehicle or 5-MeO-DMT administration.
Following euthanasia brain regions of interest were isolated. Briefly, the olfactory bulbs were removed before the brain was placed in a rat brain matrix (FIG. 2A). Sterile blades were inserted at positions 2 and 3 (FIG. 2B) to extract a coronal slice containing the Bregma+˜0.2-+˜2.2 coordinates (FIG. 2C). From this tissue slice a blunted 12 G needle was used to punch dissect the NAc and dorsal striatum (DS) (FIG. 2D-2E) identified using the rat brain atlas (Panxinos and Watson 2nd edition). The PFC, hippocampus (Hip) and amygdala (Amyg) were then blunt dissected (FIG. 3A-3D). All regions were frozen in liquid nitrogen and stored at −80° C. until processed.
These treatment groups were used for the molecular assessment of addiction-linked markers.
Determination of protein concentration—a bicinchoninic acid assay (BCA, ThermoFisher) was conducted to determine the total protein concentration in tissue lysates following manufacturer's instructions. Briefly, bovine serum albumin (BSA) standards were prepared in a serial dilution (0-2.0 mg protein/ml) and 200 μl working reagent (50:1, reagent A: reagent B) was added to each of the standards and samples in a 96 well plate (Greiner). For tissue lysates a 1:10 dilution was performed with cell lysis buffer to ensure absorbance values lay within the working range established by the standards. All samples and standards were added in duplicate. The plate was covered and incubated for 30 mins at 37° C. before absorbance was read at 562 nm on a plate reader (SpectraMax M3). The absorbance values were used to form a standard curve of known protein concentrations and protein concentration of samples were derived using the equation of the line. All samples were standardized to the lowest protein concentration using distilled H20 (dH2O).
SDS-PAGE and Western Blotting—Following equalisation of protein concentrations, 6× sample loading buffer (15% SDS, 15% […], 50% glycerol, 0.01% bromophenol blue, […]) was added to each sample using a dilution factor of 1:5 of the total volumes before boiling at 100° C. for 5 mins. Samples were stored at −20° C. until use. One dimensional sodium-dodecyl-sulphate polyacrylamide gel electrophoresis (SDS-PAGE) was used for protein separation based on molecular weight. The percentage of acrylamide in the resolving or stacking gel was determined by the molecular weight of the protein of interest. In this instance all gels consisted of a 5% stacking gel and a 10% resolving gel with the exception of mGluR5, G9a (8%) and H3K9Me2 (12%). 20 μg of protein was loaded and resolved using SDS-PAGE. Gel electrophoresis was conducted at 80V while the protein was in the stacking gel, once it migrated to the resolving gel the voltage was increased to 120V and ran for 90 mins. Samples were transferred to a 0.45 μm polyvinylidene difluoride (PVDF) membrane (Analab) for 1 hour at 100V and blocked in 5% milk blocking solution made in tris-buffered saline containing tween®-20 (TBS-T, Sigma) for 90 mins. Primary antibodies (FIG. 5) were diluted in 5% BSA in TBS-T and incubated with membranes overnight at 4° C. or for 2 hours at room temperature. After incubation with primary antibodies the membranes were washed in TBS-T for 4×10 minutes before incubation with 1:2000 anti-rabbit and 1:2000 anti-mouse Alexa Fluro® conjugated secondary antibodies (Invitrogen) in 2% milk for 1 hour at room temperature. Membranes were washed in TBS-T for 4×10 minutes and in TBS for 1×10-minute wash. Proteins were visualized using Odyssey® infrared imaging system. Protein expression was quantified using Image Studio Lite (Version 5.2) and expression intensities were normalized to a house keeping protein, α-Tubulin or β-actin.
A general note: A western blot detects proteins with antibodies after separation by electrophoresis.

Each structure is given as a SMILES string.

As to `COC(=O)[C@H]1[C@@H](OC(=O)c2ccccc2)C[C@@H]2CC[C@H]1N2C.Cl` [cocaine, cocaine hydrochloride, reference compound], the “decrease in H3K9Me2 expression” value with H3K9Me2 is 15%.

As for `COc1ccc2[nH]cc(CCN(C)C)c2c1` [5-MeO-DMT, 5-methoxy-N,N-dimethyltryptamine], the blood-brain barrier passage entry in data set [1] (rat brain regions) was “readily crosses the blood-brain barrier”. Further, the “brain drug concentrations with increase in dose” value in data set [1] (throughout the brain) is given as “increased non-proportionally”. For the same molecule, the “time to emergence of symptoms indicative of acute serotonin-associated toxicity” value in the data set with rats (cohort 1 (20 mg/kg 5-MeO-DMT)) lay within 5 to 10 min. In the data set on rats (cohort 1, 20 mg/kg 5-MeO-DMT, 1 h after last saline or cocaine), the “adverse effects after administration” value is on record as “strong adverse effects in a significant proportion of animals”. Moreover, the “animals that died or were euthanized for ethical reasons” value in the data set on rats (cohort 1, all animals administered 20 mg/kg 5-MeO-DMT) is given as 7 of the 16. Moreover, the “animals that died or were euthanized” value with rats (cohort 1, cocaine+5-MeO-DMT (20 mg/kg) group) is recorded as 5 animals; in the data set on rats (cohort 1, saline+5-MeO-DMT (20 mg/kg) group) it was 2 animals. The “animals euthanized for early signs of serotonin-associated toxicity” value with rats (cohort 2, saline+5-MeO-DMT (10 mg/kg) group) is 2 animals. The BDNF expression result in the data set on BDNF (PFC, cocaine+10 mg/kg 5-MeO-DMT relative to saline+vehicle) is reported as “significant decrease in BDNF expression”; in the data set with BDNF (PFC, cocaine+20 mg/kg 5-MeO-DMT relative to saline+vehicle), “significant decrease in BDNF expression”; in the data set with BDNF (hippocampus, any of the treatment groups) it was “no change in BDNF expression”. For the same molecule, the BDNF levels result in the data set with BDNF (hippocampus, 10 mg/kg 5-MeO-DMT alone) was “no effect alone”; in the data set with BDNF (hippocampus, 20 mg/kg 5-MeO-DMT alone) it was “significant decrease in BDNF levels”; in the data set with BDNF (hippocampus, cocaine+10 mg/kg 5-MeO-DMT) it was “does not affect the cocaine-induced decrease in expression levels”; in the data set with BDNF (hippocampus, cocaine+20 mg/kg 5-MeO-DMT), “restores BDNF levels to those seen in the control group”.

Source of the values: patent US20240299353A1, “COMPOSITIONS AND METHODS FOR TREATING […] 5-MEO-DMT” (Alvarius Pharmaceuticals Ltd., priority 2021, published 2024).
